According to US8630703B2, “Treatment utilizing hydrophobic weak bases chemotherapeutic agents and illumination” (Technion Research & Development Foundation Limited, priority 2011, dated 2014):
Values joined by “and” are separate entries in the source; they are usually repeats but may differ in a detail not shown here. Equal entries are not always repeated.

Assays:
A549 cells [1] = test: XTT cytotoxicity of C-1330 after chloroquine treatment, with and without illumination; assay type: cell-based, Human; conditions: 24 hours
A549 cells [2] = test: Live cell fluorescent imaging (lysosomal localization and photodestruction); assay type: cell-based, Human; conditions: 470 nm microscope illumination
Experimental: (§1) Lysosomes and mitochondria were stained by incubating the cells 100 nM LysoTracker® Red or 100 nM MitoTracker® Red, respectively, for 1 hour. For subcellular localization of C-1330, cells were also stained with 10 μM C-1330 for 30 minutes.
(§2) Nuclear staining was performed prior to fluorescence imaging by replacing the growth medium with medium containing 2 μg/ml Hoechst 33342, followed by incubation for 10 minutes. Prior to nuclear staining, A549/K1.5 cells were incubated for 1 hour with 10 μM fumitremorgin C (FTC) to prevent efflux of Hoechst 33342 by ABCG2.
(§3) Live cell fluorescent imaging was performed using an Axiovert 200 inverted fluorescence microscope (Carl Zeiss) equipped with a digital camera. […] Light intensity was maintained at 12.5% of the maximum. The magnification used was ×630.
(§4) Cells were pre-incubated with 10 mM ammonium chloride for 30 minutes or with 1 μM bafilomycin A1 for 60 minutes, prior to being incubated with 10 μM C-1330 for 30 minutes as described hereinabove. Ammonium chloride and bafilomycin A1 remained present during the incubation with C-1330.
Monolayers of A549 cells were grown in glass-bottom plates and were washed in growth medium. The medium was then replaced with a special isotonic balanced salt solution lacking or containing either N,N′-dimethylthiourea (DMTU), a potent hydroxyl radical and hydrogen peroxide scavenger, L-histidine, a hydroxyl radical and singlet oxygen radical (^1O2) scavenger, or sodium azide, a singlet oxygen radical scavenger. The salt solution consisted of 10 mM HEPES pH 7.4, 120 mM NaCl, 5 mM KCl, 1 mM CaCl2, 1 mM MgCl2, and 25 mM glucose. After incubation for 1 hour, C-1330 was added to the aforementioned solution buffer for an additional 30 minutes, during which the scavengers remained present, in order to load lysosomes. The cells were then examined by fluorescent imaging as described hereinabove.

A549 cells [3] = test: XTT cytotoxicity assay with and without illumination
Experimental: (§7) Parental cells and their MDR (multi-drug resistant) sub-lines were seeded in 96-well plates (2×10^4 cells/well in 90 μl growth medium/well). […] Following incubation for 2 hours, the drug-containing medium was replaced by drug-free medium. The cells were then placed on an illuminator plate (Model 460, thin line series, S&S X-Ray Products Inc., Brooklyn, N.Y.) for 1 hour, thereby achieving a light dose of 5 J/cm^2 white light. After illumination, plates were further incubated for an additional 24 hours.
Cell viability was determined using an XTT (2,3-bis-(2-methoxy-4-nitro-5-sulfophenyl)-2H-tetrazolium-5-carboxanilide) Cell Proliferation Kit (Biological Industries). […] Results are presented as mean values of at least three independent experiments.

A549 cells [4] = test: Crystal violet staining of illuminated monolayers; assay type: cell-based, Human; conditions: 10 μM 30 min, 470 nm 1 minute, 48 hours after illumination
Experimental: (§5) A549 and A549/K1.5 cells were grown to full confluence on glass-bottom plates and loaded with 10 μM C-1330 for 30 minutes. Before illumination, the spent medium was replaced by fresh medium. Using the inverted fluorescence microscope as a source of illumination, each plate was illuminated for 1 minute at a wavelength of 470 nm, at an intensity of approximately 3 W/m^2. Cells were then incubated at 37° C. for an additional 48 hours. The cells were then washed twice with PBS, fixed with 70% methanol for 10 minutes and stained with a diluted dye solution (1:5) of crystal violet. Stained monolayer cells were then washed three times with double distilled water. Crystal violet-stained cells were then examined and photographed using an M80 binocular at a x8 magnification (Leica Microsystems GmbH), and by an inverted Cell-Observer microscope, at a x1000 magnification (Carl Zeiss).
(§6) Monolayers of A549 and A549/K1.5 cells were pulse-incubated with C-1330 for 30 minutes, washed with drug-free medium, subjected to illumination for 1 minute with a fluorescence microscope, and incubated for 48 additional hours in growth medium. The confluent monolayers were then washed with PBS, fixed with methanol, and stained with crystal violet. The monolayers were then examined by light microscopy.

A549/K1.5 cells [5] = test: Crystal violet staining of illuminated monolayers; assay type: cell-based, Human; conditions: 10 μM 30 min, 470 nm 1 minute, 48 hours after illumination
Experimental: as §5, §6

A549 cells [6] = test: Texas Red-phalloidin staining of F-actin; assay type: cell-based, Human; conditions: 10 μM 30 minutes
Experimental: A549 cells were grown on coverslips in 24-well plates until confluence was reached. Cells were then incubated with 10 μM C-1330 for 30 minutes and then exposed to light for 1 minute, in order to achieve lysosomal photodestruction. Control cells were loaded with C-1330 but were not illuminated. C1330-loaded cells were ether fixed and stained with Texas Red®-X Phalloidin (Life Technologies) with no illumination or stained with Texas Red®-X Phalloidin 2 hours after illumination. Cells were then washed twice with PBS and fixed by adding 4% formaldehyde for 10 minutes at room temperature. Following two additional washes with PBS, 0.1% Triton X-100 was added for 10 minutes, and then washed twice to remove the Triton X-100. Blocking was then achieved using a solution of 20% skim milk and 2.5% fetal calf serum for 20 minutes. At this stage, 5 μl of Texas Red®-X Phalloidin stock solution was added to 0.2 ml of PBS and the samples were incubated for 20 minutes while being protected from light. The samples were finally rinsed to remove excess Texas Red®-X Phalloidin. Coverslips were removed gently from wells and attached onto slides using Fluoromount-G. Fluorescent cells were analyzed by a fluorescence microscope, using an excitation wavelength of 545 nm and an emission wavelength of 605 nm.

A549 cells [7] = test: XTT cytotoxicity of C-1330 after chloroquine treatment, with and without illumination; assay type: cell-based, Human
Experimental: A549 cells were seeded in 96-well plates at a concentration of 500 cells/well for the 48 hour chloroquine treatment, or at a concentration of 1000 cells/well for the 24 hour chloroquine treatment, in a total volume of 100 μl of medium per well. Following an overnight incubation, chloroquine was then added at the indicated concentrations for 24 or 48 hours. Lysosomes were then stained with LysoTracker® Red, detected by fluorescent imaging as described hereinabove, and quantified using EZQuant software. […]

A549/K1.5 cells [8] = test: XTT cytotoxicity assay with and without illumination; assay type: cell-based, Human
Experimental: Human non-small cell lung cancer A549 cells and their ABCG2-overexpressing MDR (multi-drug resistant) A549/K1.5 sub-line; ovarian carcinoma cell line 2008 and its stable MRP1-transfectant 2008/MRP1; and human non-small lung cancer cell line SW1573 and its ABCB1-overexpressing subline SW1573/2R160) were maintained in RPMI-1640 medium supplemented with 10% fetal bovine serum, 2 mM glutamine, 100 μg/ml penicillin and streptomycin (Biological Industries, Beth-Haemek, Israel) in a humid atmosphere containing 5% CO2 at 37° C.
as §7
Cell viability was determined using an XTT (2,3-bis-(2-methoxy-4-nitro-5-sulfophenyl)-2H-tetrazolium-5-carboxanilide) Cell Proliferation Kit (Biological Industries). The drug concentrations required to inhibit cell growth by 50% (i.e., IC50 values) were determined from the cell survival curves in the absence and in the presence of illumination. Results are presented as mean values of at least three independent experiments.

A549/K1.5 cells [9] = test: Live cell fluorescent imaging (lysosomal localization and photodestruction); assay type: cell-based, Human; conditions: A549/K1.5; 470 nm microscope illumination
Experimental: as §1, §2, §3, §4
A549/K1.5 cells were incubated with 10 μM doxorubicin for 30 minutes, and then observed and illuminated (at 470 nm) by live cell fluorescent imaging as described in the Materials and Methods section. Upon illumination, the cells were photographed every second, in order to observe changes in the cells over time.

[10] = chloroquine 20 (μM), 24 hours, no illumination
[11] = chloroquine 20 (μM), 48 hours, no illumination

In the case of `CCN(CC)CCNc1ccc2ncn3c4ccc(OC)cc4c(=O)c1c23` [C-1330], the “C-1330 LD50 Illumination” value (A549 cells [1]; chloroquine 50 (μM)) is reported as 0.637 ± 0.174 µM, the “Survival at 3000 nM Control” value (A549 cells [1]; chloroquine 50 (μM), no illumination) is reported as 92 ± 7% and the “C-1330 LD50 Illumination” value (A549 cells [1]; chloroquine 100 (μM)) is reported as 0.498 ± 0.064 µM. The “C-1330 LD50 Control” value (A549 cells [1]; chloroquine 100 (μM), no illumination) was 15.048 ± 2.886 µM, the “lysosomal photodestruction upon blue light illumination” value (A549 cells [2]) was “continuous disappearance of lysosomes” and the “difference in survival of illuminated and non-illuminated cells” value (A549 cells [3]; 3 μM) was 29%. For the same compound, the Fold sensitization (A549 cells [3]; control vs illumination) was 6, the “Survival at 3000 nM Control” value (A549 cells [3]; no illumination) was 72% and 72 ± 5% and the “LD50 Control” value (A549 cells [3]; no illumination, 2 h drug, XTT 24 h later) was 5.023 ± 0.716 µM. For the same compound, the “LD50 Illumination” value (A549 cells [3]; white light 1 hour (5 J/cm^2)) was 842 ± 208 nM, the “Survival at 3000 nM Illumination” value (A549 cells [3]; white light illumination) was 43% and 43 ± 6% and the “appearance of illuminated area of monolayer (crystal violet)” value (A549 cells [4]) was “region of lysed cells”. For the same compound, the “appearance of illuminated area of monolayer (crystal violet)” value (A549/K1.5 cells [5]) was “region of lysed cells”, the “actin cytoskeleton after illumination” value (A549 cells [6]; 2 hours after illumination) was “devoid of cytoplasmic content and actin cytoskeleton” and the “actin cytoskeleton without illumination” value (A549 cells [6]; no illumination) was “retained a normal actin cytoskeleton”. For the same compound, the “cell death without illumination at the indicated concentration (LD10)” value (A549 cells [7]; 20 μM chloroquine 48 hours, FIG. 12C dotted line, no illumination) was “approximately 10%”, the “cell death with illumination at the indicated concentration (LD90)” value (A549 cells [7]; 20 μM chloroquine 48 hours, FIG. 12C dotted line, white light) was ~90% and the Fold sensitization (A549 cells [7]; chloroquine 20 (nM), 24 hours) was 23. The Fold sensitization (A549 cells [7]; chloroquine 20 (nM), 48 hours) was 49, the “C-1330 LD50 Illumination” value (A549 cells [7]; chloroquine 20 (μM), 24 hours) was 0.648 ± 0.065 µM and the “Survival at 3000 nM Illumination” value (A549 cells [7]; chloroquine 20 (μM), 24 hours) was 29% and 29 ± 07%. For the same compound, the “C-1330 LD50 Control” value (A549 cells [7]; [10]) was 15.222 ± 0.378 µM, the “Survival at 3000 nM Control” value (A549 cells [7]; [10]) was 79% and 79 ± 5% and the “C-1330 LD50 Illumination” value (A549 cells [7]; chloroquine 20 (μM), 48 hours) was 0.7 ± 0.043 µM. For the same compound, the “Survival at 3000 nM Illumination” value (A549 cells [7]; chloroquine 20 (μM), 48 hours) was 9% and 9 ± 3%, the “C-1330 LD50 Control” value (A549 cells [7]; [11]) was 34.137 ± 3.084 µM and the “Survival at 3000 nM Control” value (A549 cells [7]; [11]) was 88% and 88 ± 8%. The Fold sensitization (A549 cells [7]; chloroquine 50 (nM), 24 hours) was 31, the “Survival at 3000 nM Illumination” value (A549 cells [7]; chloroquine 50 (μM), 24 hours) was 23 ± 2% and the “C-1330 LD50 Control” value (A549 cells [7]; chloroquine 50 (μM), 24 hours, no illumination) was 19.609 ± 2.454 µM. The Fold sensitization (A549 cells [7]; chloroquine 100 (nM), 24 hours) was 30, the “Survival at 3000 nM Illumination” value (A549 cells [7]; chloroquine 100 (μM), 24 hours) was 19 ± 3% and the “Survival at 3000 nM Control” value (A549 cells [7]; chloroquine 100 (μM), 24 hours, no illumination) was 90 ± 9%. For the same compound, the “difference in survival of illuminated and non-illuminated cells” value (A549/K1.5 cells [8]; A549/K1.5, 3 μM) was 59%, the “cell death without illumination at the indicated concentration (LD10)” value (A549/K1.5 cells [8]; A549/K1.5, FIG. 9B dotted line, no illumination) was “approximately 10%” and the “cell death with illumination at the indicated concentration (LD70)” value (A549/K1.5 cells [8]; A549/K1.5, FIG. 9B dotted line, white light) was ~70%. The Fold sensitization (A549/K1.5 cells [8]; A549/K1.5, control vs illumination) was 14, the “LD50 Control” value (A549/K1.5 cells [8]; A549/K1.5, no illumination) was 12.269 ± 1.119 µM and the “Survival at 3000 nM Control” value (A549/K1.5 cells [8]; A549/K1.5, no illumination) was 87 ± 4%. For the same compound, the “LD50 Illumination” value (A549/K1.5 cells [8]; A549/K1.5, white light 1 hour (5 J/cm^2)) was 850 ± 23 nM, the “Survival at 3000 nM Illumination” value (A549/K1.5 cells [8]; A549/K1.5, white light illumination) was 28 ± 1% and the “resistance of A549/K1.5 cells compared to parental A549 cells” value (A549/K1.5 cells [8]; no illumination) was 2.5 fold. The “lysosomal photodestruction upon blue light illumination” value (A549/K1.5 cells [9]) was “continuous disappearance of lysosomes”.
